Laboratory results: patent US6476025B1, “Phenylphennanthridines with PDE-IV inhibiting activity” (Altana Pharma AG, priority 1999, dated 2002)

Tested on: PDE4
Assay: Inhibition of PDE4 activity (method of Bauer and Schwabe, adapted to microtiter plates)
Format: biochemical
Settings: inhibitory concentration as −log IC50 (mol/l)
Method: The activity test was carried out according to the method of Bauer and Schwabe, which was adapted to microtiter plates (Naunyn-Schmiedeberg's Arch. Pharmacol. 1980, 311, 193-198). The PDE reaction takes place in the first step here. In a second step, the resulting 5′-nucleotide is cleaved by a 5′-nucleotidase of the snake venom of Crotalus atrox to the uncharged nucleoside. In the third step, the nucleoside is separated from the remaining charged substrate on ion-exchange columns. The columns are eluted directly into minivials, into which 2 ml of scintillator fluid are additionally added, for counting using 2 ml of 30 mM ammonium formate (pH 6.0).
The inhibitory values determined for the compounds according to the invention [inhibitory concentration as −log Ic50 (mol/l)] follow from the following Table A, in which the numbers of the compounds correspond to the numbers of the examples.

SMILES	−log IC50, inhibition of the PDE4 activity
COc1cc2c(cc1OC)[C@@H]1CCCC[C@@H]1N=C2c1ccc(OCc2ccccc2)c(OCC2CC2)c1 [Compound 10, (−)-cis-6-(4-Benzyloxy-3-cyclopropylmethoxyphenyl)-8,9-dimethoxy-1,2,3,4,4a,10b-hexahydrophenanthridine]	8.09
COc1cc2c(cc1OC)C1CCCCC1N=C2c1ccc(OC)c(OC2CCC2)c1 (single isomer, unassigned; (-)) [Compound 44, (−)cis-8,9-Dimethoxy-6-[(3-cyclobutoxy-4-methoxy)phenyl]-1,2,3,4,4a,10b-hexahydrophenanthridine]	7.58
CCOc1ccc(C2=N[C@H]3CCCC[C@H]3c3cc(OC)c(OC)cc32)cc1OCC1CC1 [Compound 38, (−)-cis-8,9-Dimethoxy-6-(3-cyclopropylmethoxy-4-ethoxyphenyl)-1,2,3,4,4a,10b-hexahydrophenanthridine]	7.47
COc1cc2c(cc1OC)C1CCCCC1N=C2c1ccc(C(C)=O)cc1 (single isomer, unassigned; (-)) [Compound 2, (−)-cis-8,9-Dimethoxy-6-(4-acetophenyl)-1,2,3,4,4a,10b-hexahydrophenanthridine]	7.27
COc1cc2c(cc1OC)C1CCCCC1N=C2c1ccc(C(=O)c2ccncc2)cc1 (single isomer, unassigned; (-)) [Compound 32, (−)-cis-8,9-Dimethoxy-6-[4-(pyridyl-4-carbonyl)phenyl]-1,2,3,4,4a,10b-hexahydrophenanthridine]	7.45
COc1cc2c(cc1OC)C1CCCCC1N=C2c1ccc(OC)c(N2CCCC2)c1 (single isomer, unassigned; (-)) [Compound 46, (−)-cis-8,9-Dimethoxy-6-[(4-methoxy-3-pyrrolidin-1-yl)phenyl]-1,2,3,4,4a,10b-hexahydrophenanthridine]	7.16
COc1cc2c(cc1OC)[C@@H]1CCCC[C@@H]1N=C2c1ccc(C(=O)c2ccccc2)cc1 [Compound 1, (−)-cis-8,9-Dimethoxy-6-(4-benzoylphenyl)-1,2,3,4,4a,10b-hexahydrophenanthridine]	7.82
COc1cc2c(cc1OC)[C@@H]1CCCC[C@@H]1N=C2c1cccc(OS(=O)(=O)c2ccc(C)cc2)c1 [Compound 14, (−)-cis-8,9-Dimethoxy-6-[3-(p-toluenesulfonyloxy)phenyl)-1,2,3,4,4a,10b-hexahydrophenanthridine]	8.44
COc1cc2c(cc1OC)[C@@H]1CCCC[C@@H]1N=C2c1ccc(OC)c(OC2CCCC2)c1 [Compound 9, (−)-cis-6-(3-Cyclopentyloxy-4-methoxyphenyl)-8,9-dimethoxy-1,2,3,4,4a,10b-hexahydrophenanthridine]	7.79
COc1cc2c(cc1OC)[C@@H]1CCCC[C@@H]1N=C2c1ccc(OC)c(OCc2ccccc2)c1 [Compound 11, (+)-cis-6-(3-Benzyloxy-4-methoxyphenyl)-8,9-dimethoxy-1,2,3,4,4a,10b-hexahydrophenanthridine]	8.03
COc1cc2c(cc1OC)[C@@H]1CCCC[C@@H]1N=C2c1ccc(OC)c(OCC2CC2)c1 [Compound 12, (−)-cis-8,9-Dimethoxy-6-[3-cyclopropylmethoxy4-methoxyphenyl]-1,2,3,4,4a,10b-hexahydrophenanthridine]	7.80
COc1cc2c(cc1OC)[C@@H]1CCCC[C@@H]1N=C2c1cccc(OS(C)(=O)=O)c1 [Compound 13, (−)-cis-8,9-Dimethoxy-6-(3-methanesulfonyloxyphenyl)-1,2,3,4,4a,10b-hexahydrophenanthridine]	8.33
COc1cc2c(cc1OC)[C@@H]1CCCC[C@@H]1N=C2c1ccc(C(=O)c2ccc(Cl)cc2)cc1 (relative stereo) [Compound 27, (−)-cis-8,9-Dimethoxy-6-[4-(4-chlorbenzoyl)phenyl]-1,2,3,4,4a,10b-hexahydrophenanthridine]	7.3
COc1cc2c(cc1OC)[C@@H]1CCCC[C@@H]1N=C2c1cccc(C(=O)c2ccccc2)c1 [Compound 3, (−)-cis-8,9-Dimethoxy-6-(3-benzoylphenyl)-1,2,3,4,4a,10b-hexahydrophenanthridine]	8.64
CCOc1cc2c(cc1OC)C(c1ccc(C(=O)c3ccccc3)cc1)=N[C@H]1CCCC[C@@H]21 [Compound 25, (−)-cis-9-Ethoxy-8-methoxy-6-(4-benzoylphenyl)-1,2,3,4,4a,10b-hexahydrophenanthridine]	8.87
CCOc1cc2c(cc1OC)C(c1ccc(OCC3CC3)c(OCC3CC3)c1)=NC1CCCCC21 (single isomer, unassigned; (-)) [Compound 40, (−)-cis-9-Ethoxy-8-methoxy-6-[3,4-bis(cyclopropylmethoxy)phenyl]-4,2,3,4,4a,10b-hexahydrophenanthridine]	8.65

SMILES	−log IC50, inhibition of the PDE4 activity
COc1ccc(Oc2cccc(C3=N[C@H]4CCCC[C@H]4c4cc(OC)c(OC)cc43)c2)cc1 [Compound 36, (−)-cis-8,9-Dimethoxy-6-[3-(4-methoxyphenoxy)phenyl]-1,2,3,4,4a,10b-hexahydrophenanthridine]	8.78
COc1cc2c(cc1OC)[C@@H]1CCCC[C@@H]1N=C2c1cccc(Oc2ccccc2)c1 [Compound 5, (−)-cis-8,9-Dimethoxy-6-(3-phenoxyphenyl)-1,2,3,4,4a,10b-hexahydrophenanthridine]	8.54
COc1cc2c(cc1OC)[C@@H]1CCCC[C@@H]1N=C2c1cc(OCC2CC2)cc(OCC2CC2)c1 [Compound 41, (−)-cis8,9-Dimethoxy-6-[3,5-bis(cyclopropylmethoxy)phenyl]-1,2,3,4,4a,10b-hexahydrophenanthridine]	8.03
COc1cc2c(cc1OC)[C@@H]1CCCC[C@@H]1N=C2c1ccc(CN2CCOCC2)cc1 [Compound 21, (−)-cis-8,9-Dimethoxy-6-[4-(morpholin-4-ylmethyl)phenyl]-1,2,3,4,4a,10b-hexahydrophenanthridine]	7.35
COc1cc2c(cc1OC)[C@@H]1CCCC[C@@H]1N=C2c1cccc(OCCc2ccccc2)c1 [Compound 8, (−)-cis-8,9-Dimethoxy-6-(3-phenethyloxyphenyl)-1,2,3,4,4a,10b-hexahydrophenanthridine]	8.41
COc1cc2c(cc1OC)C1CCCCC1N=C2c1ccc(C(=O)N2CCCCC2)cc1 (single isomer, unassigned; (-)) [Compound 16, (−)-cis-8,9-Dimethoxy-[4-(piperdin-1-ylcarbonyl)phenyl]-1,2,3,4,4a,10b-hexahydrophenanthridine]	8.02
CCC(=O)c1ccc(C2=N[C@H]3CCCC[C@H]3c3cc(OC)c(OC)cc32)cc1 [Compound 50, (−)-cis-8,9-Dimethoxy-6-[4-propionylphenyl]-1,2,3,4,4a,10b-hexahydrophenanthridine]	7.98
COc1ccc(C(=O)c2ccc(C3=N[C@H]4CCCC[C@H]4c4cc(OC)c(OC)cc43)cc2)cc1 [Compound 26, (−)-cis-8,9-Dimethoxy-6-[4-(4-methoxybenzoyl)phenyl]-1,2,3,4,4a,10b-hexahydrophenanthridine]	7.46
COc1cc2c(cc1OC)[C@@H]1CCCC[C@@H]1N=C2c1ccc(S(=O)(=O)c2ccccc2)cc1 [Compound 34, (−)-cis-8,9-Dimethoxy-6-[4-(phenylsulfonyl)phenyl]-1,2,3,4,4a,10b-hexahydrophenanthridine]	7.89
COc1cc2c(cc1OC)[C@@H]1CCCC[C@@H]1N=C2c1ccc(OC(F)F)c(OCC2CC2)c1 [Compound 42, (−)-cis-8,9-Dimethoxy-6-(3-cyclopropylmethoxy-4-difluoromethoxyphenyl)-1,2,3,4,4a,10b-hexahydrophenanthridine]	7.43
COc1cc2c(cc1OC)C1CCCCC1N=C2c1ccc(OCC2CC2)c(OCC2CC2)c1 (single isomer, unassigned; (-)) [Compound 15, (−)-cis-8,9-Dimethoxy-6-[3,4-bis-(cyclopropylmethoxy)phenyl]-i,2,3,4,4a,10b-hexahydrophenanthridine]	7.89
COc1cc2c(cc1OC)[C@@H]1CCCC[C@@H]1N=C2c1ccc(C(=O)c2ccc(C#N)cc2)cc1 [Compound 31, (−)-cis-8,9-Dimethoxy-6-[4-(4-cyanobenzoyl)phenyl]-1,2,3,4,4a,10b-hexahydrophenanthridine]	7.8
COc1cc2c(cc1OC)C1CCCCC1N=C2c1ccc(NC(C)=O)c(OCC2CC2)c1 (single isomer, unassigned; (-)) [Compound 45, (−)-cis-8,9-Dimethoxy-6-[(3-cyclopropylmethoxy-4-acetamido)phenyl]-1,2,3,4,4a,10b-hexahydrophenanthridine]	8.04
COc1cc2c(cc1OC)C1CCCCC1N=C2c1ccc(CN2CCN(C)CC2)cc1 (single isomer, unassigned; (-)) [Compound 22, (−)-cis-8,9-Dimethoxy-6-[4-(4-methylpiperazin-1-ylmethyl)phenyl]-1,2,3,4,4a,10b-hexphenanthridine]	7.27
COc1cc2c(cc1OC)[C@@H]1CCCC[C@@H]1N=C2c1ccc(C(=O)c2cccc(Cl)c2)cc1 (relative stereo) [Compound 28, (−)-cis-8,9-Dimethoxy-6-[4-(3-chlorbenzoyl)phenyl]-1,2,3,4,4a,10b-hexahydrophenanthridine]	7.61
